Measurements from patent US4461912A, “Phenylacetic acid derivatives, their preparation and compositions containing them” (Sankyo Company Limited, priority 1981, dated 1984).
Read-outs that look alike come from different tables or passages of the source.

Experiments:
[1] = system: pressure-induced pain; test: Pain test for analgesic activity (modified Randall-Selitto, Brewers' yeast inflamed paw pressure); format: in vivo, Male Wistar-Imamichi rats; details: read-out: Analgesic activity ED50
Experimental: Pain test for analgesic activity
This test was conducted according to a modification of the method reported by L. O. Randall and J. J. Selitto in Arch. Int.
Male Wistar-Imamichi rats of 4 weeks of age and weighing 60-90 g were injected with 0.1 ml of a 20% by weight suspension of Brewers' yeast in the right hind paw. […] Each of these was given orally a test compound as an aqueous tragacanth suspension. 1 and 2 hours after administration of the test compound, the pain threshold was determined by observing pain responses (such as struggling or squeaking) when the inflamed or normal paw was subjected to pressure by a machine (Ugo-Basile).

[2] = system: carrageenin oedema; test: Carrageenin oedema test for anti-inflammatory activity; format: in vivo, Male Wistar rats; details: rat, per os, aqueous tragacanth suspension, 30 minutes before carrageenin; paw volume 3 hours after carrageenin injection; dose to inhibit the response by 50%; unit assumed
Experimental: Carrageenin oedema test for anti-inflammatory activity
Male Wistar rats weighing 120-150 g were fasted overnight and then received a test compound per os as an aqueous tragacanth suspension. 30 minutes later, inflammation was induced by the subcutaneous injection of 0.05 ml of a 1% carrageenin suspension into the plantar tissue of a hind paw of each rat [Winter et al., Proc. Soc. […] The anti-oedema activity was measured volumetrically, by assessing the response, as calculated from the following equation: […]
where Vo and V represent, respectively, the paw volume immediately before and 3 hours after the carrageenin injection.

[3] = rat, oral, aqueous tragacanth suspension, pain threshold 1 and 2 hours after administration, effective = at least twice mean pain threshold of controls, Litchfield and Wilcoxon

## COc1ccc2c(c1)c(CC(=O)O)c(C)n2C(=O)c1ccc(Cl)cc1 [B, Indomethacin]
[1]; Rattus norvegicus, po
  ED50: 1.6 mg/kg
[2]
  Anti-inflammatory activity ID50: 2.2 mg/kg

## CC(C(=O)O)c1ccc(C=C2CCCCC2O)cc1 (stereo not drawn) [A, 2-[4-(2-hydroxycyclohexylidenemethyl)phenyl]propionic acid]
[1]; [3]
  ED50: 0.35 mg/kg
[2]
  Anti-inflammatory activity ID50: 0.98 mg/kg

## CC(C(=O)O)c1ccc(C=C2CCCCC2=O)cc1 (stereo not drawn) [C, 2-[4-(2-oxocyclohexylidenemethyl)phenyl]propionic acid]
[1]; [3]
  ED50: 0.94 mg/kg
[2]
  Anti-inflammatory activity ID50: 1.2 mg/kg
